The source of these data is patent US9597407B2, “Targeted antimicrobial moieties” (C3 Jian, Inc., priority 2009, dated 2017).

Entries after “also recorded” stand apart in the source; their conditions may differ.

For this assay, the system named is bacteria. In words: Binding of targeting peptides to microorganisms (Table 3). To be noted: peptide binding in aqueous buffers varied by peptide solubility; preferably 1x PBS.
Take “1T-83 (QKPRKNETFIGYIQRYDIDGNGYQSLPCPQN; Peptide with targeting and/or antimicrobial activity) [Peptide 1T-83]”: the “Target(s) (microorganism bound by the targeting peptide)” value is given as “S. pneumoniae”.

In the case of “1T-84 (FRKKRYGLSILLWLNAFTNLVNSIHAFYMTLF; Peptide with targeting and/or antimicrobial activity) [Peptide 1T-84]”, the “Target(s) (microorganism bound by the targeting peptide)” value is on record as “S. pneumoniae”.

Regarding “1T-86 (HRKNPVLGVGRRHRAHNVA; Peptide with targeting and/or antimicrobial activity) [Peptide 1T-86]”, the “Target(s) (microorganism bound by the targeting peptide)” value is “S. mitis; also recorded: S. oralis; also recorded: S. salivarious”.

Turning to “1T-87 (EAVGQDLVDAHHP; Peptide with targeting and/or antimicrobial activity) [Peptide 1T-87]”, the “Target(s) (microorganism bound by the targeting peptide)” value is “S. mitis; also recorded: S. mutans; also recorded: S. oralis”.

Take “1T-89 (HEDDKRRGMSVEVLGFEVVQHEE; Peptide with targeting and/or antimicrobial activity) [Peptide 1T-89]”: the “Target(s) (microorganism bound by the targeting peptide)” value is on record as “S. mitis; also recorded: S. mutans”.

As to “1T-90 (RNVIGQVL; Peptide with targeting and/or antimicrobial activity) [Peptide 1T-90]”, the “Target(s) (microorganism bound by the targeting peptide)” value was “S. gordonii; also recorded: S. mitis; also recorded: S. mutans; also recorded: S. oralis; also recorded: S. sanguinis”.

For the substance “1T-91 (TSVRPGAAGAAVPAGAAGAAGAGWRWP; Peptide with targeting and/or antimicrobial activity) [Peptide 1T-91]”, the “Target(s) (microorganism bound by the targeting peptide)” value is listed as “S. mitis; also recorded: S. mutans; also recorded: S. oralis; also recorded: S. sanguinis”.

As to “1T-92 (GQDEGQRRAGVGEGQGVDG; Peptide with targeting and/or antimicrobial activity) [Peptide 1T-92]”, the “Target(s) (microorganism bound by the targeting peptide)” value is listed as “S. mitis; also recorded: S. mutans”.

“1T-93 (AMRSVNQA; Peptide with targeting and/or antimicrobial activity) [Peptide 1T-93]”: the “Target(s) (microorganism bound by the targeting peptide)” value is reported as “S. epidermidis; also recorded: S. gordonii; also recorded: S. mitis; also recorded: S. mutans; also recorded: S. oralis; also recorded: S. sanguinis”.

“1T-94 (DQVAHSGDMLVQARRRDS; Peptide with targeting and/or antimicrobial activity) [Peptide 1T-94]”: the “Target(s) (microorganism bound by the targeting peptide)” value was “S. mitis; also recorded: S. mutans; also recorded: S. oralis”.

“1T-95 (GHLLRVGGRVGGVGGVAGACAQPFGGQ; Peptide with targeting and/or antimicrobial activity) [Peptide 1T-95]”: the “Target(s) (microorganism bound by the targeting peptide)” value is on record as “S. gordonii; also recorded: S. mitis; also recorded: S. mutans; also recorded: S. oralis; also recorded: S. sanguinis”.

“1T-96 (VAGACAQPFGGQ; Peptide with targeting and/or antimicrobial activity) [Peptide 1T-96]”: the “Target(s) (microorganism bound by the targeting peptide)” value was “S. gordonii; also recorded: S. mitis; also recorded: S. mutans; also recorded: S. oralis; also recorded: S. sanguinis”.

With “1T-99 (MKAWLGQ; Peptide with targeting and/or antimicrobial activity) [Peptide 1T-99]”, the “Target(s) (microorganism bound by the targeting peptide)” value is “S. gordonii; also recorded: S. mitis; also recorded: S. mutans; also recorded: S. oralis; also recorded: S. sanguinis”.

Take “1T-100 (LDPLEPRIAPPGDRSHQGAPACHRDPLRGRSARDAER; Peptide with targeting and/or antimicrobial activity) [Peptide 1T-100]”: the “Target(s) (microorganism bound by the targeting peptide)” value is given as “S. gordonii; also recorded: S. mitis; also recorded: S. mutans”.

“1T-101 (RLRVGRATDLPLTSFAVGVVRNLPDAPAH; Peptide with targeting and/or antimicrobial activity) [Peptide 1T-101]”: the “Target(s) (microorganism bound by the targeting peptide)” value is given as “A. naeslundii; also recorded: P. gingivalis; also recorded: S. epidermidis; also recorded: S. gordonii; also recorded: S. mitis; also recorded: S. mutans; also recorded: S. oralis; also recorded: S. sanguinis”.

In the case of “1T-104 (RAVAAHLQGRHHGHQVRRQRHGQR; Peptide with targeting and/or antimicrobial activity) [Peptide 1T-104]”, the “Target(s) (microorganism bound by the targeting peptide)” value was “S. mitis”.

Consider “1T-105 (GEGLPPPVLHLPPPRMSGR; Peptide with targeting and/or antimicrobial activity) [Peptide 1T-105]”, for which the “Target(s) (microorganism bound by the targeting peptide)” value was “S. epidermidis; also recorded: S. gordonii; also recorded: S. mitis; also recorded: S. mutans; also recorded: S. oralis”.

On to “1T-106 (DALRRSRSQGRRHR; Peptide with targeting and/or antimicrobial activity) [Peptide 1T-106]”, for which the “Target(s) (microorganism bound by the targeting peptide)” value is given as “S. gordonii; also recorded: S. mitis; also recorded: S. mutans; also recorded: S. oralis; also recorded: S. salivarious”.

As for “1T-107 (SPVPRFTAVGGVSRGSP; Peptide with targeting and/or antimicrobial activity) [Peptide 1T-107]”, the “Target(s) (microorganism bound by the targeting peptide)” value was “A. naeslundii; also recorded: S. epidermidis; also recorded: S. gordonii; also recorded: S. mitis; also recorded: S. mutans; also recorded: S. oralis; also recorded: S. salivarious; also recorded: S. sanguinis”.

“1T-108 (WGPLGPERPLW; Peptide with targeting and/or antimicrobial activity) [Peptide 1T-108]”: the “Target(s) (microorganism bound by the targeting peptide)” value is on record as “S. gordonii; also recorded: S. mitis; also recorded: S. mutans; also recorded: S. oralis; also recorded: S. salivarious; also recorded: S. sanguinis”.

On to “1T-109 (VTTNVRQGAGS; Peptide with targeting and/or antimicrobial activity) [Peptide 1T-109]”, for which the “Target(s) (microorganism bound by the targeting peptide)” value is listed as “A. naeslundii; also recorded: S. epidermidis; also recorded: S. gordonii; also recorded: S. mitis; also recorded: S. mutans; also recorded: S. oralis; also recorded: S. salivarious; also recorded: S. sanguinis”.

With “1T-110 (LAAKTAVCVGRAFM; Peptide with targeting and/or antimicrobial activity) [Peptide 1T-110]”, the “Target(s) (microorganism bound by the targeting peptide)” value is listed as “A. naeslundii; also recorded: P. gingivalis; also recorded: S. epidermidis; also recorded: S. gordonii; also recorded: S. mitis; also recorded: S. mutans; also recorded: S. oralis; also recorded: S. sanguinis”.

As for “1T-112 (SDNDGKLILGTSQ; Peptide with targeting and/or antimicrobial activity) [Peptide 1T-112]”, the “Target(s) (microorganism bound by the targeting peptide)” value is on record as “S. gordonii”.

Turning to “1T-113 (HGAHQRTGQRLHHHRGRTVSGCRQNPVAGVDPDEHR; Peptide with targeting and/or antimicrobial activity) [Peptide 1T-113]”, the “Target(s) (microorganism bound by the targeting peptide)” value is given as “S. mitis”.

With “1T-114 (RQAPGPGLVTITAACSAPGSRSR; Peptide with targeting and/or antimicrobial activity) [Peptide 1T-114]”, the “Target(s) (microorganism bound by the targeting peptide)” value was “A. naeslundii; also recorded: P. gingivalis; also recorded: S. epidermidis; also recorded: S. gordonii; also recorded: S. mitis; also recorded: S. mutans; also recorded: S. oralis; also recorded: S. sanguinis”.

For the substance “1T-117 (GPGVVGPAPFSRLPAHALNL; Peptide with targeting and/or antimicrobial activity) [Peptide 1T-117]”, the “Target(s) (microorganism bound by the targeting peptide)” value is “S. mutans”.

In the case of “1T-119 (SPATQKAPTRAQPSRAPVQDCGDGRPTAAPDDVERLSPR; Peptide with targeting and/or antimicrobial activity) [Peptide 1T-119]”, the “Target(s) (microorganism bound by the targeting peptide)” value is given as “S. gordonii; also recorded: S. mitis; also recorded: S. mutans; also recorded: S. oralis”.

With “1T-121 (FAKETGFGIGGAQEGWWIIADIYGPNPF; Peptide with targeting and/or antimicrobial activity) [Peptide 1T-121]”, the “Target(s) (microorganism bound by the targeting peptide)” value was “S. gordonii; also recorded: S. mitis; also recorded: S. mutans; also recorded: S. oralis; also recorded: S. salivarious; also recorded: S. sanguinis”.

As to “1T-122 (GAIPDPVTHRVDWEEDHQTRPSR; Peptide with targeting and/or antimicrobial activity) [Peptide 1T-122]”, the “Target(s) (microorganism bound by the targeting peptide)” value is given as “S. mitis”.

For the substance “1T-123 (LVRRNAVAGRSDGLAGAEQLDLVRLQGVL; Peptide with targeting and/or antimicrobial activity) [Peptide 1T-123]”, the “Target(s) (microorganism bound by the targeting peptide)” value is reported as “S. gordonii”.

For “1T-124 (LFDERNKIA; Peptide with targeting and/or antimicrobial activity) [Peptide 1T-124]”, the “Target(s) (microorganism bound by the targeting peptide)” value was “S. mitis; also recorded: S. mutans; also recorded: S. oralis”.

As to “1T-125 (DAITGGNPPLSDTDGLRP; Peptide with targeting and/or antimicrobial activity) [Peptide 1T-125]”, the “Target(s) (microorganism bound by the targeting peptide)” value is recorded as “S. epidermidis; also recorded: S. gordonii; also recorded: S. mutans; also recorded: S. oralis”.

With “1T-126 (QGLARPVLRRIPL; Peptide with targeting and/or antimicrobial activity) [Peptide 1T-126]”, the “Target(s) (microorganism bound by the targeting peptide)” value is “S. gordonii; also recorded: S. mitis; also recorded: S. mutans”.

As to “1T-139 (AVAGAAVGALLGNDARSTAVGAAIGGALGAGAGELTKNK; Peptide with targeting and/or antimicrobial activity) [Peptide 1T-139]”, the “Target(s) (microorganism bound by the targeting peptide)” value is reported as “A. naeslundii; also recorded: S. gordonii; also recorded: S. mitis; also recorded: S. mutans; also recorded: S. oralis”.

For the substance “1T-141 (KKFIILLFILVQGLIFSATKTLSDIIAL; Peptide with targeting and/or antimicrobial activity) [Peptide 1T-141]”, the “Target(s) (microorganism bound by the targeting peptide)” value is listed as “F. nucleatum; also recorded: P. gingivalis; also recorded: S. epidermidis; also recorded: S. gordonii; also recorded: S. mitis; also recorded: S. mutans; also recorded: S. oralis; also recorded: S. sanguinis”.
